Reference: ChEMBL document CHEMBL3621178, “Antidiabetic effect of novel benzenesulfonylureas as PPAR-γ agonists and their anticancer effect” (Bioorg Med Chem Lett, 2015)
Activity calls are given as the source filed them. The calls are words filed in the database; no cut-off is given here.

Experiments:
NCI-H322M = assay: Growth inhibition of human NCI-H322M cells assessed as cell viability at 10 uM incubated for 48 hrs by sulforhodamine B assay; type: functional; conditions: read-out: Activity
OVCAR-5 = assay: Growth inhibition of human OVCAR5 cells assessed as cell viability at 10 uM incubated for 48 hrs by sulforhodamine B assay; type: functional; conditions: OVCAR-5, 48 h, read-out: Activity
[1] = Growth inhibition of human NCI60 cells assessed as cell viability at 10 uM incubated for 48 hrs by sulforhodamine B assay; type: functional; conditions: NCI60, 48 h, read-out: Activity
UO-31 = assay: Growth inhibition of human UO31 cells assessed as cell viability at 10 uM incubated for 48 hrs by sulforhodamine B assay; type: functional; conditions: UO-31, 48 h, read-out: Activity
MDA-MB-468 = assay: Growth inhibition of human MDA-MB-468 cells assessed as cell viability at 10 uM incubated for 48 hrs by sulforhodamine B assay; type: functional; conditions: MDA-MB-468, 48 h, read-out: Activity
UACC-257 = assay: Growth inhibition of human UACC257 cells assessed as cell viability at 10 uM incubated for 48 hrs by sulforhodamine B assay; type: functional; conditions: UACC-257, 48 h, read-out: Activity
PC-3 = assay: Growth inhibition of human PC3 cells assessed as cell viability at 10 uM incubated for 48 hrs by sulforhodamine B assay; type: functional; conditions: PC-3, 48 h, read-out: Activity
MDA-MB-435 = assay: Growth inhibition of human MDA-MB-435 cells assessed as cell viability at 10 uM incubated for 48 hrs by sulforhodamine B assay; type: functional; conditions: MDA-MB-435, 48 h, read-out: Activity
SNB-19 = assay: Growth inhibition of human SNB19 cells assessed as cell viability at 10 uM incubated for 48 hrs by sulforhodamine B assay; type: functional; conditions: SNB-19, 48 h, read-out: Activity
UACC-62 = assay: Growth inhibition of human UACC62 cells assessed as cell viability at 10 uM incubated for 48 hrs by sulforhodamine B assay; type: functional; conditions: UACC-62, 48 h, read-out: Activity
[2] = Growth inhibition of human RXF393 cells assessed as cell viability at 10 uM incubated for 48 hrs by sulforhodamine B assay; type: functional; conditions: RXF 393, 48 h, read-out: Activity
Rattus norvegicus = assay: Antidiabetic activity in Wistar rat assessed as reduction in blood glucose level at 30 mg/kg, po dosed 30 mins before glucose challenge and measured 30 and 60 mins post glucose challenge by OGTT method; type: functional, organism-based
U-251 = assay: Growth inhibition of human U251 cells assessed as cell viability at 10 uM incubated for 48 hrs by sulforhodamine B assay; type: functional; conditions: U-251, 48 h, read-out: Activity
HOP-62 = assay: Growth inhibition of human HOP62 cells assessed as cell viability at 10 uM incubated for 48 hrs by sulforhodamine B assay; type: functional; conditions: HOP-62, 48 h, read-out: Activity
OVCAR-3 = assay: Growth inhibition of human OVCAR3 cells assessed as cell viability at 10 uM incubated for 48 hrs by sulforhodamine B assay; type: functional; conditions: OVCAR-3, 48 h, read-out: Activity
KM12 = assay: Growth inhibition of human KM12 cells assessed as cell viability at 10 uM incubated for 48 hrs by sulforhodamine B assay; type: functional; conditions: KM12, 48 h, read-out: Activity
[3] = Growth inhibition of human HCC2998 cells assessed as cell viability at 10 uM incubated for 48 hrs by sulforhodamine B assay; type: functional; conditions: HCC 2998, 48 h, read-out: Activity
Malme-3M = assay: Growth inhibition of human MALME-3M cells assessed as cell viability at 10 uM incubated for 48 hrs by sulforhodamine B assay; type: functional; conditions: read-out: Activity
ACHN = assay: Growth inhibition of human ACHN cells assessed as cell viability at 10 uM incubated for 48 hrs by sulforhodamine B assay; type: functional; conditions: read-out: Activity
M14 = assay: Growth inhibition of human M14 cells assessed as cell viability at 10 uM incubated for 48 hrs by sulforhodamine B assay; type: functional; conditions: M14, 48 h, read-out: Activity
OVCAR-4 = assay: Growth inhibition of human OVCAR4 cells assessed as cell viability at 10 uM incubated for 48 hrs by sulforhodamine B assay; type: functional; conditions: OVCAR-4, 48 h, read-out: Activity
A498 = assay: Growth inhibition of human A498 cells assessed as cell viability at 10 uM incubated for 48 hrs by sulforhodamine B assay; type: functional; conditions: A498, 48 h, read-out: Activity
SR = assay: Growth inhibition of human SR cells assessed as cell viability at 10 uM incubated for 48 hrs by sulforhodamine B assay; type: functional; conditions: read-out: Activity
[4] = Growth inhibition of human COLO205 cells assessed as cell viability at 10 uM incubated for 48 hrs by sulforhodamine B assay; type: functional; conditions: COLO 205, 48 h, read-out: Activity
NCI-H226 = assay: Growth inhibition of human NCI-H226 cells assessed as cell viability at 10 uM incubated for 48 hrs by sulforhodamine B assay; type: functional; conditions: NCI-H226, 48 h, read-out: Activity
DU-145 = assay: Growth inhibition of human DU145 cells assessed as cell viability at 10 uM incubated for 48 hrs by sulforhodamine B assay; type: functional; conditions: DU-145, 48 h, read-out: Activity
[5] = Growth inhibition of human SF295 cells assessed as cell viability at 10 uM incubated for 48 hrs by sulforhodamine B assay; type: functional; conditions: SF-295, 48 h, read-out: Activity
CAKI-1 = assay: Growth inhibition of human CAKI-1 cells assessed as cell viability at 10 uM incubated for 48 hrs by sulforhodamine B assay; type: functional; conditions: CAKI-1, 48 h, read-out: Activity
NCI-H23 = assay: Growth inhibition of human NCI-H23 cells assessed as cell viability at 10 uM incubated for 48 hrs by sulforhodamine B assay; type: functional; conditions: NCI-H23, 48 h, read-out: Activity
T47D = assay: Growth inhibition of human T47D cells assessed as cell viability at 10 uM incubated for 48 hrs by sulforhodamine B assay; type: functional; conditions: read-out: Activity
K562 = assay: Growth inhibition of human K562 cells assessed as cell viability at 10 uM incubated for 48 hrs by sulforhodamine B assay; type: functional; conditions: K562, 48 h, read-out: Activity
HCT-116 = assay: Growth inhibition of human HCT116 cells assessed as cell viability at 10 uM incubated for 48 hrs by sulforhodamine B assay; type: functional; conditions: HCT-116, 48 h, read-out: Activity
[6] = Growth inhibition of human HOP92 cells assessed as cell viability at 10 uM incubated for 48 hrs by sulforhodamine B assay; type: functional; conditions: HOP-92, 48 h, read-out: Activity
[7] = Growth inhibition of human MOLT4 cells assessed as cell viability at 10 uM incubated for 48 hrs by sulforhodamine B assay; type: functional; conditions: MOLT-4, 48 h, read-out: Activity
[8] = Growth inhibition of human LOXIMVI cells assessed as cell viability at 10 uM incubated for 48 hrs by sulforhodamine B assay; type: functional; conditions: LOX IMVI, read-out: Activity
MDA-MB-231 = assay: Growth inhibition of human MDA-MB-231 cells assessed as cell viability at 10 uM incubated for 48 hrs by sulforhodamine B assay; type: functional; conditions: MDA-MB-231, 48 h, read-out: Activity

Compound | viability at 10 µM (NCI-H322M) [%] | viability at 10 µM (OVCAR-5) [%] | viability at 10 µM [1] [%] | viability at 10 µM (UO-31) [%] | viability at 10 µM (MDA-MB-468) [%] | viability at 10 µM (UACC-257) [%] | viability at 10 µM (PC-3) [%] | viability at 10 µM (MDA-MB-435) [%] | viability at 10 µM (SNB-19) [%] | viability at 10 µM (UACC-62) [%] | viability at 10 µM [2] [%] | viability at 10 µM (U-251) [%] | viability at 10 µM (HOP-62) [%] | viability at 10 µM (OVCAR-3) [%] | viability at 10 µM (KM12) [%] | viability at 10 µM [3] [%] | viability at 10 µM (Malme-3M) [%] | viability at 10 µM (ACHN) [%] | viability at 10 µM (M14) [%] | viability at 10 µM (OVCAR-4) [%] | other results
CN(C)c1ccc(C2CC(c3cc4ccccc4oc3=O)=NN2c2ccc(S(=O)(=O)NC(=O)NCc3ccccc3)cc2)cc1 (stereo unspecified) | 79.6 | 74.6 | 65.8 | 44.9 | 68.2 | 64.9 | 67.1 | 65.5 | 82 | 37.6 | 85.4 | 67.8 | 57.8 | 82.2 | 72.9 | 90 | 89.9 | 58.2 | 55 | 52.8 | Activity (Rattus norvegicus): Active; viability at 10 µM (A498): 51.2%; viability at 10 µM (SR): 19.7%; viability at 10 µM [4]: 78.2%; viability at 10 µM (NCI-H226): 74%; viability at 10 µM (DU-145): 84.9%; viability at 10 µM [5]: 61.7%; viability at 10 µM (CAKI-1): 49.4%; viability at 10 µM (NCI-H23): 67.3%; viability at 10 µM (T47D): 64%; viability at 10 µM (K562): 59.5%; viability at 10 µM (HCT-116): 48.5%; viability at 10 µM [6]: 49.1%; viability at 10 µM [7]: 66.6%; viability at 10 µM [8]: 79.8%; viability at 10 µM (MDA-MB-231): 78.1%
COc1ccc(NC(=O)NS(=O)(=O)c2ccc(N3N=C(c4cc5ccccc5oc4=O)CC3c3ccc(N(C)C)cc3)cc2)cc1 (stereo unspecified) | 99.9 | 102 | 95.5 | 86 | 104 | 96.3 | 97.6 | 102 | 103 | 88.6 | 105 | 91.8 | 71.8 | 102 | 101 | 104 | 81 | 89.7 | 95.6 | 92.4 | viability at 10 µM (A498): 80.6%; viability at 10 µM (SR): 74.3%; viability at 10 µM [4]: 115%; viability at 10 µM (NCI-H226): 89.7%; viability at 10 µM (DU-145): 111%; viability at 10 µM [5]: 83.8%; viability at 10 µM (CAKI-1): 88.9%; viability at 10 µM (NCI-H23): 85.1%; viability at 10 µM (T47D): 87.7%; viability at 10 µM (K562): 114%; viability at 10 µM (HCT-116): 82.6%; viability at 10 µM [6]: 79.8%; viability at 10 µM [7]: 107%; viability at 10 µM [8]: 95.6%; viability at 10 µM (MDA-MB-231): 97%
O=C(NCc1ccccc1)NS(=O)(=O)c1ccc(N2N=C(c3cc4ccccc4oc3=O)CC2c2cccs2)cc1 (stereo unspecified) | 106 | 111 | 103 | 95.7 | 110 | 104 | 108 | 103 | 108 | 102 | 123 | 102 | 93.6 | 106 | 105 | 106 | 90.7 | 102 | 98.8 | 98.2 | viability at 10 µM (A498): 107%; viability at 10 µM (SR): 98.8%; viability at 10 µM [4]: 119%; viability at 10 µM (NCI-H226): 98.4%; viability at 10 µM (DU-145): 110%; viability at 10 µM [5]: 93.8%; viability at 10 µM (CAKI-1): 94.2%; viability at 10 µM (NCI-H23): 101%; viability at 10 µM (T47D): 97.4%; viability at 10 µM (K562): 111%; viability at 10 µM (HCT-116): 106%; viability at 10 µM [6]: 94.2%; viability at 10 µM [7]: 106%; viability at 10 µM [8]: 97.7%; viability at 10 µM (MDA-MB-231): 103%
